Experimental data: US6696493B2, “Treating chronic uremic patients undergoing periodic dialysis” (Sigma-Tau Industrie Farmaceutiche Riunite S.p.A., priority 2000, dated 2004)
Entries after “also recorded” stand apart in the source; their conditions may differ.

Legend:
perfused heart = experiment: low-pressure or low-flow ischaemia model, perfused heart (Langendorff)
Excerpt: In this example, the low-pressure or low-flow ischaemia model was used, which is a model recognised as valid for cardiac ischaemia (Bolukoglu, H. et al. Am. J. Physiol. 1996: 270; H817-26).
The treatment schedule is illustrated in FIG. 1., in which the letters A-F denote the heart effluent sampling times for the measurement of metabolites. The hearts are removed from the animals and mounted on a Langerdorff appliance. The perfusion medium replacing the blood was a Krebs-Heinsleit standard bicarbonate buffer containing glucose 12 mM as energy source for cardiac metabolism.
After 30 minute perfusion at a pressure of 100 cm of water, ischaemia was induced by reducing the perfusion pressure of the heart to 25 cm of water, thus reducing coronary flow from approximately 2 ml/min to approximately 0.3 ml/min. Reduction of the perfusion pressure gives rise to ischaemia, since the heart will pump the fluid in the low-perfusion area rather than via the coronary bloodstream, supplying the flow to the heart.
This control model was compared with hearts perfused with L-carnitine 10 mM or L-carnitine fumarate 10 mM.
Cardiac function was tested in three different ways.
In the first, the NRM ^31P signal was monitored in real time.
This signal provides the best indication of the energy status of the heart.
In the second, the haemodynamics of the heart was measured by means of a pressure transducer mounted to measure the perfusion pressure. The haemodynamic measurements include heart rate, relative dP/dt (measurement of the contraction force of the heart) and the cardiac contraction amplitude. Coronary flow was also measured as an indicator of the heart's ability to provide oxygen and energy for its own metabolism.
In the third type of test, the metabolites and the enzyme LDH released by the heart were analysed in the effluent. The release of LDH indicates damage to cardiac tissue. The release of metabolites by the heart was tested by means of mass spectrometry coupled with gas chromatography.
The procedures of example 1 were substantially repeated, with the addition of a treatment with carnitine alone as a further control.

hemodialysis patients = conditions: i.v. 20 mg/kg for six months, then 10 mg/kg, after each dialysis session; cited from earlier work
[1] = tested on: maintenance hemodialysis patients; conditions: i.v. 20 mg/kg after each dialysis session; cited from earlier work
patients = conditions: oral supplementation, cited from earlier work
[2] = cited from earlier work
[3] = 10 mM, post-ischemic, vs control hearts

Structure (SMILES) | release of LDH in heart effluent (perfused heart; 10 mM in perfusion medium, low-flow ischaemia, vs control hearts, fumarate) | reserves of high-energy phosphate (creatine phosphate, 31P NMR) (perfused heart; 10 mM, after 45 minutes of ischaemia, vs control hearts) | malate released by the heart (effluent) (perfused heart; 10 mM, low-flow ischaemia, GC-MS of effluent) | lactate released by the heart (effluent) (perfused heart; 10 mM, low-flow ischaemia, GC-MS of effluent, fumarate) | coronary flow (perfused heart; [3]) | post-ischemic cardiac contraction amplitude (perfused heart; [3]) | succinate released by the heart (effluent) (perfused heart; Example 2, FIG. 3B, compared to lactate) | ATP peaks (alpha, beta, gamma phosphate, 31P NMR) (perfused heart; Example 2, after 40 minutes of ischaemia, FIG. 2) | abnormal serum fatty acid profile (hemodialysis patients) | dialytic symptoms [1] | effect on serum lipid profile [1] | exercise capability, sense of well being [1] | quality of life, early stage of treatment (patients; early stage of treatment) | quality of life, long term treatment (patients; long term treatment (six months)) | bioavailability through the oral route [2]
C[N+](C)(C)C[C@H](O)CC(=O)[O-].O=C(O)/C=C/C(=O)O [carnitine fumarate, L-carnitine fumarate] | reduced release of LDH; also recorded: affords protection against ischemic damage | greater in treated hearts | more malate | less lactate; also recorded: lactate reduction | greater | greater | low amount of succinate as compared to lactate | – | – | – | – | – | – | – | –
C[N+](C)(C)C[C@H](O)CC(=O)[O-] [carnitine, L-carnitine] | – | – | – | – | – | – | – | lacking | partial correction | decrease | does not seem to have a great lipid-lowering potential | improvement | effective in improving the quality of life | not sustained | subject to saturation mechanism
